We go through 73 sequences from the supplement of paper PMC11208160.

The nature of this series: recombinant barcode read abundance after kanamycin selection (control-corrected) (log10(CPM+1)); higher = more efficient recombination; sequences stand for … in AGTGCAGAGAAAATCGGCCAGTTTTCTCTGCCTGCAGTCCGCATGCCGT…AGATTTATGCAGCGGACTGCCTTTCTCCCAAAGTGATAAACCGGACAGTATCATGGACCGGTTTTCCCGGTAATCCGTATTTGCAAGGTTGGTTTCACT; site = the 11-nt target. How it is done:
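Pooled E. coli target-specificity screen for the IS621 bridge recombinase. Each library plasmid pairs an 11-nt target (CT core) with a bridge RNA whose target-binding loop (9-nt LTG + 4-nt RTG) is reprogrammed; the rest of the 177-nt WT IS621 bridge RNA scaffold is fixed. The plasmid is co-electroporated with a WT donor plasmid; recombinase is induced with 0.1 mM IPTG and recombinants are selected on kanamycin. Recombinant barcodes are sequenced, converted to CPM, averaged over two biological replicates and corrected by the unselected control CPM. Molecule = full bridge RNA written as DNA: LTG = specificity nt 1-9, RTG = reverse complement of specificity nt 8-11, in the WT scaffold.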
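Note: IS621 recombinase and bridge RNA in Escherichia coli cells.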

For the sequence “AACAGGCCTTGGGTTCTAACCTGTTGCCT (site AACAGGCCTAG)”, the “recombinant barcode read abundance (log10)” value is 0.0525.
The value for “AACAGGCCTTGGGTTCTAACCTGTTGCCT (site TGTGACACTTT)” was 0; that for “AACATACCTTGGGTTCTAACCTGTTGCCT (site AACATACCTAG)” was 0.737; that for “AACATACCTTGGGTTCTAACCTGTTGCCT (site ATCATTCCTAG)” was 0.564.
Next, “AACATCACTTGGGTTCTAACCTGTTGCCG (site AACATCACTCG)”: 1.08; “AACATCACTTGGGTTCTAACCTGTTGCCG (site AGCATCACTAG)”: 0; “AACCACTCTTGGGTTCTAACCTGTTGCCT (site AACCACTCTAG)”: 2.42.
The value for “AACCACTCTTGGGTTCTAACCTGTTGCCT (site CACCACTCTAG)” was 0.942.
For “AACCACTCTTGGGTTCTAACCTGTTGCCT (site GACCACTCTAG)”, the “recombinant barcode read abundance (log10)” value is 0.266.
The value for “AACCACTCTTGGGTTCTAACCTGTTGCCT (site TACCACTCTAG)” was 1.46; that for “AACCAGTCTTGGGTTCTAACCTGTTGCCG (site AACCAGTCTCG)” was 0.898; that for “AACCAGTCTTGGGTTCTAACCTGTTGCCG (site ACCCAGTCTTG)” was 0.033.
For the sequence “AACCCACCTTGGGTTCTAACCTGTTGCCT (site AACCCACCTAG)”, the “recombinant barcode read abundance (log10)” value is 1.97.
In the case of “AACCCACCTTGGGTTCTAACCTGTTGCCT (site CACCCACCTAG)”, the “recombinant barcode read abundance (log10)” value amounted to 0.56.
As to “AACCCACCTTGGGTTCTAACCTGTTGCCT (site GACCCACCTAG)”, the “recombinant barcode read abundance (log10)” value was determined as 0.0506.
The value for “AACCCACCTTGGGTTCTAACCTGTTGCCT (site TACCCACCTAG)” was 0.997.
Next, “AACGCCACTTGGGTTCTAACCTGTTGCCT (site AACGCCACTAG)”: 0.0293; “AACGCCACTTGGGTTCTAACCTGTTGCCT (site GACGCCACTAG)”: 0.0328; “AACGGAGCTTGGGTTCTAACCTGTTGCGG (site AACGGAGCTCC)”: 1.78.
The value for “AACGGAGCTTGGGTTCTAACCTGTTGCGG (site TGCGGAGCTCC)” was 0.699; that for “AACGTACCTTGGGTTCTAACCTGTTGCAG (site AACGTACCTCT)” was 1.28; that for “AACGTACCTTGGGTTCTAACCTGTTGCAG (site GTGAAGACTAA)” was 0.0773.
As for “AACTAATCTTGGGTTCTAACCTGTTGCCT (site AACTAATCTAG)”, the “recombinant barcode read abundance (log10)” value turned out to be 0.327.
Next, “AACTAATCTTGGGTTCTAACCTGTTGCCT (site AACTCATCTAG)”: 0.0864.
Next, “AACTAATCTTGGGTTCTAACCTGTTGCCT (site AACTGATCTAG)”: 0.0845; “AACTAATCTTGGGTTCTAACCTGTTGCCT (site AACTTATCTAG)”: 0.0117.
Take “AACTAGTCTTGGGTTCTAACCTGTTGCTA (site AACCAGTCTTC)”: the “recombinant barcode read abundance (log10)” value stood at 0.0577.
Next, “AACTAGTCTTGGGTTCTAACCTGTTGCTA (site AACTAGTCTTA)”: 1.27.
Regarding “AACTATTCTTGGGTTCTAACCTGTTGCCT (site AACTATTCTAG)”, the “recombinant barcode read abundance (log10)” value was found to be 0.374.
Next, “AACTATTCTTGGGTTCTAACCTGTTGCCT (site ATGTATTCTAG)”: 0.114; “AACTCATCTTGGGTTCTAACCTGTTGCCT (site AACTAATCTAG)”: 0.0366; “AACTCATCTTGGGTTCTAACCTGTTGCCT (site AACTCATCTAG)”: 0.378.
The value for “AACTCATCTTGGGTTCTAACCTGTTGCCT (site AACTGATCTAG)” was 0.149; that for “AACTCATCTTGGGTTCTAACCTGTTGCCT (site AACTTATCTAG)” was 0.0223.
Consider “AACTTATCTTGGGTTCTAACCTGTTGCCT (site AACTAATCTAG)”, for which the “recombinant barcode read abundance (log10)” value was determined as 1.02.
Next, “AACTTATCTTGGGTTCTAACCTGTTGCCT (site AACTCATCTAG)”: 0.0843; “AACTTATCTTGGGTTCTAACCTGTTGCCT (site AACTGATCTAG)”: 0.0896.
The value for “AACTTATCTTGGGTTCTAACCTGTTGCCT (site AACTTATCTAG)” was 0.812; that for “AACTTCACTTGGGTTCTAACCTGTTGCCT (site AACTTCACTAG)” was 1.12; that for “AACTTCACTTGGGTTCTAACCTGTTGCCT (site AACTTCCCTAG)” was 0.013.
The value for “AACTTCACTTGGGTTCTAACCTGTTGCCT (site AACTTCGCTAG)” was 0.364; that for “AACTTCACTTGGGTTCTAACCTGTTGCCT (site AACTTCTCTAG)” was 0.0193; that for “AACTTTCCTTGGGTTCTAACCTGTTGCAT (site AACTATCCTAT)” was 0.0732.
As to “AACTTTCCTTGGGTTCTAACCTGTTGCAT (site AACTCTCCTAT)”, the “recombinant barcode read abundance (log10)” value was 0.465.
Regarding “AACTTTCCTTGGGTTCTAACCTGTTGCAT (site AACTGTCCTAT)”, the “recombinant barcode read abundance (log10)” value turned out to be 0.0344.
Next, “AACTTTCCTTGGGTTCTAACCTGTTGCAT (site AACTTTCCTAT)”: 0.259.
Next, “AAGAAGCCTTGGGTTCTAACCTGTTGCCT (site AAGAAGCCTAG)”: 2.01.
Turning to “AAGAAGCCTTGGGTTCTAACCTGTTGCCT (site CAGAAGCCTAG)”, the “recombinant barcode read abundance (log10)” value came out at 0.717.
Take “AAGAAGCCTTGGGTTCTAACCTGTTGCCT (site GAGAAGCCTAG)”: the “recombinant barcode read abundance (log10)” value came to 0.14.
The value for “AAGAAGCCTTGGGTTCTAACCTGTTGCCT (site TAGAAGCCTAG)” was 0.337.
“AAGAATACTTGGGTTCTAACCTGTTGCCT (site AAGAATACTAG)”: the “recombinant barcode read abundance (log10)” value is 1.16.
Next, “AAGAATACTTGGGTTCTAACCTGTTGCCT (site GAGAATACTAC)”: 0.011.
Consider “AAGACATCTTGGGTTCTAACCTGTTGCTT (site AAGACATCTAA)”, for which the “recombinant barcode read abundance (log10)” value came out at 1.19.
The value for “AAGACATCTTGGGTTCTAACCTGTTGCTT (site TAGACATCTAT)” was 0.24; that for “AAGAGTCCTTGGGTTCTAACCTGTTGCGT (site AAAAGTCCTAG)” was 0.423.
Regarding “AAGAGTCCTTGGGTTCTAACCTGTTGCGT (site AAGAGTCCTAC)”, the “recombinant barcode read abundance (log10)” value is 2.55.
For “AAGATACCTTGGGTTCTAACCTGTTGCTT (site AAGATACCTAA)”, the “recombinant barcode read abundance (log10)” value came out at 1.29.
With “AAGATACCTTGGGTTCTAACCTGTTGCTT (site AAGATACCTCA)”, the “recombinant barcode read abundance (log10)” value amounted to 0.36.
Consider “AAGATGTCTTGGGTTCTAACCTGTTGCTG (site AAGATGTCTCA)”, for which the “recombinant barcode read abundance (log10)” value was 1.74.
The value for “AAGATGTCTTGGGTTCTAACCTGTTGCTG (site TAGAAGTCTCA)” was 0.0558.
With “AAGATTCCTTGGGTTCTAACCTGTTGCCT (site AAGATTCCTAG)”, the “recombinant barcode read abundance (log10)” value is 0.575.
For “AAGATTCCTTGGGTTCTAACCTGTTGCCT (site ACGATTCCTAG)”, the “recombinant barcode read abundance (log10)” value was 0.0379.
Consider “AAGATTCCTTGGGTTCTAACCTGTTGCCT (site AGGATTCCTAG)”, for which the “recombinant barcode read abundance (log10)” value came out at 0.111.
Turning to “AAGATTCCTTGGGTTCTAACCTGTTGCCT (site ATGATTCCTAG)”, the “recombinant barcode read abundance (log10)” value was determined as 0.217.
Next, “AAGCATGCTTGGGTTCTAACCTGTTGCTA (site AAGCATGCTTA)”: 0.883; “AAGCATGCTTGGGTTCTAACCTGTTGCTA (site CTCTTAACTCC)”: 0.0074; “AAGCCAACTTGGGTTCTAACCTGTTGCCT (site AAGCAAACTAG)”: 0.294.
The value for “AAGCCAACTTGGGTTCTAACCTGTTGCCT (site AAGCCAACTAG)” was 1.19; that for “AAGCCAACTTGGGTTCTAACCTGTTGCCT (site AAGCGAACTAG)” was 0.181.
Take “AAGCCAACTTGGGTTCTAACCTGTTGCCT (site AAGCTAACTAG)”: the “recombinant barcode read abundance (log10)” value worked out at 0.172.
Next, “AAGCCCTCTTGGGTTCTAACCTGTTGCTT (site AAGACCTCTAA)”: 0.144; “AAGCCCTCTTGGGTTCTAACCTGTTGCTT (site AAGCCCTCTAA)”: 2.53; “AAGCCCTCTTGGGTTCTAACCTGTTGCTT (site AAGGCCTCTAA)”: 0.
